Measured values published in article PMC4116331 (Journal of molecular biology, 2014).
Like-named read-outs stand apart in the source and are kept apart here.

Columns and labels:
[1] = molecular target: RT DNA polymerase activity (Human immunodeficiency virus type 1 group M subtype B, UniProt P04585); assay: RT RNA-dependent DNA polymerase activity; type: biochemical, HIV-1
[2] = molecular target: RT-RNase H; details: read-out: IC50, RT-RNase H, cited from earlier work
[3] = system: RT-RNase H; assay: RT-RNase H inhibition of other RNHIs; type: biochemical, HIV-1
[4] = read-out: In vitro IC50 RT DNA pol, pH 7.4, 1 mM Mg2+

Question: Which results are given for `O=C(O)Cc1cc(=O)oc2c(O)c(O)ccc12` [Compound F3284-8495, (7,8-dihydroxy-2-oxo-2H-chromen-4-yl)acetic acid]?
Answer: IC50 [1]: > 10000 nM; Inhibition of RT DNA polymerase activity ([1]; at 10 µM, the highest concentration tested): no detectable inhibition

Question: With `O=c1cc(CN2CCN(C(c3ccccc3)c3ccccc3)CC2)c2ccc(O)c(O)c2o1` [Compound F3385-2581] as the molecule, how does the IC50 [1, 4] read?
Answer: Its IC50 is 2200 nM.

Question: With `COc1ccc(N2CCN(Cc3cc(=O)oc4c(O)c(O)ccc34)CC2)cc1.Cl.Cl` [Compound F3385-2588] as the molecule, how does the “Inhibition of the DNA polymerase activity of RT (in words)” value [1] read?
Answer: Its value is “did not inhibit”.

Question: What about the IC50 [1, 4] of the same molecule?
Answer: The IC50 was > 10000 nM.

Question: With `O=c1cc(CN2CCN(c3cccc(Cl)c3)CC2)c2ccc(O)c(O)c2o1` [Compound F3385-2590] as the molecule, how does the IC50 [1, 4] read?
Answer: Its IC50 is 2500 nM.

Question: What does the source list for `CC(C)c1ccc(O)c(=O)c(O)c1` [β-Thujaplicinol, β-thujaplicinol]?
Answer: IC50 [2]; 31: 210 nM; Fold greater activity than F3284-8495 against the RNase H of full-length RT [3]: greater than 20 fold

Question: For manicol, which IC50 [2] is on record?
Answer: Its IC50 is 600 nM.
